We go through four compounds from patent US10946016B2, “Solid forms of an epidermal growth factor receptor kinase inhibitor” (Celgene CAR LLC, priority 2012, dated 2021).

Molecules are shown by their SMILES. “Also recorded” adds a separate entry of the source.

Data set [1] has as its system human non-small cell lung cancer cell. In words: Non-small cell lung cancer cell proliferation in vivo.
A further data set relates to mutant EGFR kinase. In words: Enzymatic and cellular assays of EGFR kinase inhibition. In kind it is biochemical.
Data set [2] has as its system human non-small cell lung cancer cell. Kind of data set: Non-small cell lung cancer cell proliferation in vitro. The class given is cell-based.
A short description of data set [3]: Aqueous solubility: slurries in deionised water, HPLC. In kind it is physicochemical. Conditions: slurry in deionised water shaken ca. 24 hours. As for the experimental part: Slurries of all each polymorphic form were created in deionised water and shaken for ca. 24 hours. The resulting solid was then analysed by HPLC to determine the concentration of material dissolved.

A short description of data set [4]: Dynamic vapour sorption (DVS) with post DVS XRPD. The class given is physicochemical. On the procedure:
For dynamic vapour sorption (DVS), approximately 10 mg of sample was placed into a wire mesh vapour sorption balance pan and loaded into a DVS-1 dynamic vapour sorption balance by Surface Measurement Systems. The sample was subjected to a ramping profile from 20-90% relative humidity (RH) at 10% increments, maintaining the sample at each step until a stable weight had been achieved (99.5% step completion). After completion of the sorption cycle, the sample was dried using the same procedure, but all the way down to 0% RH and finally taken back to the starting point of 20% RH. The weight change during the sorption/desorption cycles were plotted, allowing for the hygroscopic nature of the sample to be determined.

Data set [5] is described as follows: Stability at 40° C./75% RH for 1 week and 2 weeks (XRPD and HPLC). The class given is physicochemical. Conditions: open container. On the procedure:
Samples of each form were exposed to an environment of 40° C./75% RH for 1 week and 2 week periods to determine stability. Resulting solids were analysed by XRPD and HPLC to establish if any changes had occurred.

A short description of data set [6]: Competitive slurries at ambient and 60° C. (polymorph stability studies). In kind it is physicochemical. Conditions: slurrying at ambient and 60° C. As for the experimental part:
The results from the competitive slurries carried out at ambient (ca. 22° C.) and 60° C. are tabulated below.

Data set [7] can be described thus: XRPD after heating or drying (solid form conversion). The class given is physicochemical. Conditions: heated to 115° C. On the procedure:
X-ray powder diffraction (XRPD) analysis was carried out on a Siemens D5000, scanning the samples between 3 and 30 or 50° 2-theta. For samples <100 mg, ca. 5-10 mg of sample was gently compressed onto a glass slide which fitted into the sample holder. For samples >100 mg, ca. 100 mg of sample was gently compressed into a plastic sample holder, so that the sample surface was smooth and just above the level of the sample holder. Measurements were made as follows: In order to determine the relationship between Forms A and B, a sample of Form B was heated to 120° C. and then XRPD analysis was carried out. […] To determine whether Form C remains the same after losing the solvent present, a sample of Form C was heated to 120° C. (i.e., just past the temperature at which the solvent is removed) and then XRPD analysis was carried out. […] In order to determine whether Form E remains the same after losing the solvent present, a sample of Form E was heated to 120° C. (i.e., just past the temperature at which the solvent is lost) and then XRPD analysis was carried out. […] In order to determine whether Form F remains the same after losing the solvent present, a sample of Form F was heated to 120° C. (i.e., just past the temperature at which the solvent is lost) and then XRPD analysis was carried out. […] To examine whether Form H changes to Form A after heating to 115° C. (point after the solvent loss), the Form H material was heated to 115° C. and XRPD analysis and DSC analysis were then carried out. […] The DSC analysis (FIG. 49) indicated overlapping endotherms between ca. 115-135° C., followed by an exotherm at peak 143.9° C., likely indicating a polymorphic transition. A final endotherm was present at onset 202.7° C. (peak 206.6° C.) corresponding with the Form A melt.

The nature of data set [8]: TGA of dehydrated material after standing on the bench (water pick-up). The class given is physicochemical. Conditions: heated to 115° C., then on the bench ca. 1 hour at ambient. As for the experimental part:
To test whether Form H picks up water after desolvating/dehydrating the material by heating to 115° C., a further test was carried out whereby Form H was heated to 115° C. in a TGA pan. The sample was then removed from the TGA pan and allowed to sit on the bench for ca. 1 hour. After 1 hour, another TGA was carried out up to 115° C. […] (FIG. 51).

Data set [9] in a line: Thermodynamic solubility studies at various pH. Conditions: for solubility at 24 h: thermodynamic from solid. The class given is physicochemical. As for the experimental part:
Slurries of Form I were created in media of various pH (pH 1; pH 3; pH 4.5 and pH 6.6) and shaken for ca. 24 hours. After 24 hours, the slurries were filtered and the solution analysed by HPLC in order to determine the solubility at the various pH levels. For the buffer solutions, KCl/HCl was used for pH 1 and citrate/phosphate combinations for pH 3, 4.5 and 6.6 (10 mM). The pH of the solutions was also measured prior to HPLC analysis. XRPD analysis was carried out on the remaining solids after 24 hours of shaking.

Data set [10] can be described thus: 7 day stability studies of Form I at 25° C., 80° C., 40° C./75% RH (open and closed). The class given is physicochemical. On the procedure: Approximately 15 mg of Form I was placed separately into vials and then exposed to 25° C., 80° C. and 40° C./75% RH environments (open and closed vials) for 1 week to determine stability. The resulting solids were analysed by XRPD and HPLC to establish if any changes had occurred. Results are presented in Tables 2 and 3 and FIGS. 62 and 63.

Setting [11] is: closed container, 40° C./75% RH.

For `C=CC(=O)Nc1cccc(Nc2nc(Nc3ccc(N4CCN(C(C)=O)CC4)cc3OC)ncc2C(F)(F)F)c1` [Compound 1, N-(3-(2-(4-(4-acetylpiperazin-1-yl)-2-methoxyphenylamino)-5-(trifluoromethyl)pyrimidin-4-ylamino)phenyl)acrylamide], the “inhibition of cell proliferation” value in [1] and in data set [2] was “inhibit human non-small cell lung cancer cell proliferation” in each case. Moreover, the “selectivity for mutant EGFR as compared to wild-type EGFR” value in the data set on mutant EGFR kinase is “selective inhibitor of at least one mutation of EGFR”. In the data set with mutant EGFR kinase (enzymatic and cellular assays), the “inhibition of mutant EGFR kinase” value is listed as “selective covalent, irreversible inhibition of mutant EGFR kinase”.

Turning to `C=CC(=O)Nc1cccc(Nc2nc(Nc3ccc(N4CCN(C(C)=O)CC4)cc3OC)ncc2C(F)(F)F)c1` [Form A, N-(3-(2-(4-(4-acetylpiperazin-1-yl)-2-methoxyphenylamino)-5-(trifluoromethyl)pyrimidin-4-ylamino)phenyl)acrylamide], in [3], the “detection by HPLC analysis for the aqueous solubility” value is “could not be detected”. Further, in data set [3] (assessment in words), the aqueous solubility result is on record as “poor”. Besides, in [4], the “Post DVS XRPD (solid form)” value is given as “remained Form A” and the “hygroscopicity (DVS)” value is recorded as “non-hygroscopic”. For the same compound, the DVS water uptake in [4] (between 20 and 70% RH) is recorded as 0.87%. In data set [5] (1 week), the “HPLC purity after storage” value is given as “ca. 97.5%” and the “XRPD analysis after storage” value is reported as “still be consistent with Form A, with some loss in crystallinity”. Besides, in [5] (2 week), the “HPLC purity after storage” value is reported as “ca. 96.3%” and the “XRPD analysis after storage” value is given as “still be consistent with Form A, however, it became poorly crystalline”. Besides, in data set [6], the relative polymorph stability result is given as “likely the more stable form in comparison with Form B”.

Take `C=CC(=O)Nc1cccc(Nc2nc(Nc3ccc(N4CCN(C(C)=O)CC4)cc3OC)ncc2C(F)(F)F)c1` [Form H, N-(3-(2-(4-(4-acetylpiperazin-1-yl)-2-methoxyphenylamino)-5-(trifluoromethyl)pyrimidin-4-ylamino)phenyl)acrylamide]: the XRPD after heating entry in data set [7] is given as “still corresponded with Form H, with some loss in crystallinity”. Further, the “water pick-up of desolvated/dehydrated material” value in data set [8] was “picked up water upon standing at ambient conditions”.

One may read the solubility as the dissolved amount per volume that the medium holds. Take `C=CC(=O)Nc1cccc(Nc2nc(Nc3ccc(N4CCN(C(C)=O)CC4)cc3OC)ncc2C(F)(F)F)c1` [Form I, N-(3-(2-(4-(4-acetylpiperazin-1-yl)-2-methoxyphenylamino)-5-(trifluoromethyl)pyrimidin-4-ylamino)phenyl)acrylamide]: the “Post DVS XRPD (solid form)” value in data set [4] is given as “remained as Form I”. In addition, the “hygroscopicity (DVS)” value in [4] was “relatively non-hygroscopic”. Further, in [4] (Cycle 1, sorption 20-90% RH), the DVS mass uptake entry is given as “ca. 0.66%”. Further, in data set [4] (Cycle 2, desorption, between 10-0% RH), the “DVS rapid mass loss” value is listed as “ca. 2.7%”. Further, the DVS mass decrease result in data set [4] (Cycle 2, desorption, between 90-10% RH) was “ca. 1.2%”. The DVS moisture uptake result in data set [4] (Cycle 3, sorption, between 0-20% RH) is listed as “ca. 2.8%”. Also, the solubility at 24 h in data set [9] (aqueous buffer, buffer pH 3 (citrate/phosphate), pH prior to analysis 2.26, ca. 24 hours) was 23 µg/mL; in data set [9] (aqueous buffer, buffer pH 4.5 (citrate/phosphate), pH prior to analysis 3.38, ca. 24 hours) it was 2 µg/mL; in data set [9] (simulated gastric fluid, buffer pH 1 (KCl/HCl), pH prior to analysis 0.95, ca. 24 hours), 3270 µg/mL. Moreover, the Solubility result in [9] (buffer pH 6.6 (citrate/phosphate), pH prior to analysis 5.04, ca. 24 hours) was “Not detected”. For the same compound, the “XRPD of solids remaining after thermodynamic solubility experiment” value is “mixture of Form I and possibly the HCl salt” in data set [9] (pH 1, after 24 hours); “remained as Form I” in data set [9] (pH 6.6, 4.5 and 3.0, after 24 hours). For the same compound, the “Purity after 1 week” value is 99.4% in data set [10] (closed container, 25° C.); 99.3% in [10] (setting [11]); 99.2% in data set [10] (closed container, 80° C.); 98.7% in data set [10] (open container, 25° C.); 98.9% in data set [10] (open container, 40° C./75% RH); 98.5% in data set [10] (open container, 80° C.). Further, the “XRPD Analysis after 1 week” value in data set [10] (closed container, 25° C.) is on record as “Form I”; in data set [10] (setting [11]) it was “Form I; also recorded: (some loss in crystallinity)”; in [10] (closed container, 80° C.) it was “Form I; also recorded: (some loss in crystallinity)”; in [10] (open container, 25° C.), “Form I”; in [10] (open container, 40° C./75% RH), “Form I”; in data set [10] (open container, 80° C.), “Form I; also recorded: (some loss in crystallinity)”.
